Measured values from article PMC10470909, “cis-Decalin-containing tetramic acids as inhibitors of insect steroidogenic glutathione S-transferase Noppera-bo” (PLOS ONE, 2023).
“Also recorded” adds a separate entry of the source. Read-outs that look alike come from different tables or passages of the source.

Columns and labels:
[1] = In vitro cytotoxicity, HeLa; format: cell-based, human; conditions: human, HeLa cells (human cervical epidermoid carcinoma cell line)
Procedure: (§1) In vitro cytotoxicity and antimicrobial assays were conducted as previously reported.

[2] = In vitro cytotoxicity, HL-60; format: cell-based; conditions: human, HL-60 cells (human promyelocytic leukemia cell line)
Procedure: as §1

[3] = tested on: Staphylococcus aureus 209; test: Antimicrobial assay, S. aureus; format: cell-based
Escherichia coli HO141 = test: Antimicrobial assay, E. coli; format: cell-based
[4] = tested on: Aspergillus fumigatus Af293; test: Antimicrobial assay, A. fumigatus; format: cell-based
[5] = tested on: Pyricularia oryzae kita-1; test: microbe, parasite or virus in culture; format: cell-based; conditions: for IC50: Pyricularia oryzae, KITA1, read-out: Antimicrobial activity (IC50, μM) Po
Candida albicans JCM1542 = test: Antimicrobial assay, C. albicans; format: cell-based
[6] = tested on: Plasmodium falciparum 3D7; test: Antimalarial assay, P. falciparum; format: cell-based
[7] = In vitro cytotoxicity, src^ts-NRK; format: cell-based, rat; conditions: rat; src^ts-NRK cells
Procedure: as §1

Solubility in solvents = format: physicochemical; conditions: hexane, CHCl3, EtOAc, acetone, MeOH, MeCN, DMSO, or H2O
Procedure: Its molecular formula was determined as C24H31NO6 using HRESITOFMS.

HIV-1 integrase = tested on: HIV-1 integrase; set-up: method as in earlier work; conditions: cited from earlier work
[8] = tested on: mitochondrial respiration in HeLa cells; test: Measurement of mitochondrial respiration (OCR/ECAR, Seahorse XFe96 extracellular flux analyzer); conditions: 6 min after sample treatment
Procedure: Changes in oxygen consumption rate (OCR) and extracellular acidification rate (ECAR) were measured using a Seahorse XFe96 analyzer (Agilent, CA, USA).
To confirm this, the effect of 1 on energy metabolism was evaluated using an extracellular flux analyzer, which can simultaneously measure two metabolic properties: oxygen consumption rate (OCR) for an indicative of OXPHOS and extracellular acidification rate (ECAR) for that of glycolysis [20].
Percentage changes in OCR and ECAR (relative to their respective baseline values) induced by test compounds were calculated from S14 Fig. Each data point represents the mean ± standard deviation value at 6 min after sample treatment (n = 3). Note that decreasing OCR and increasing ECAR is a typical phenotype characteristic to mitochondrial respiration inhibitors [20].
Real-time measurements of the OCR and ECAR in HeLa cells were performed after treating the cells with different concentrations of the test samples. To perform the Seahorse XF Cell Mito Stress Test, the cells were treated with oligomycin A (OMA, 1 μM), FCCP (0.125 μM), and rotenone/antimycin A (R/A, 1 μM each) at the indicated times. Data are mean ± s.d. (n = 3 technical replicates) from one representative experiment out of three independent experiments.

[9] = tested on: HeLa, human cervical epidermoid carcinoma cell line; test: In vitro cytotoxicity, HeLa; format: cell-based; conditions: HeLa cells
Procedure: as §1

[10] = tested on: src^ts-NRK, normal rat kidney cells infected with ts25; test: In vitro cytotoxicity, src^ts-NRK; format: cell-based
Procedure: as §1

[11] = Staphylococcus aureus, 209, read-out: Antimicrobial activity (IC50, μM) Sa
[12] = Escherichia coli, HO141, read-out: Antimicrobial activity (IC50, μM) Ec
[13] = Aspergillus fumigatus, AF293, read-out: Antimicrobial activity (IC50, μM) Af
[14] = Candida albicans, JCM1542, read-out: Antimicrobial activity (IC50, μM) Ca
[15] = Plasmodium falciparum, 3D7, read-out: Antimicrobial activity (IC50, μM) Pf
[16] = Staphylococcus aureus 209, read-out: Antimicrobial activity (IC50, μM) Sa
[17] = Escherichia coli HO141, read-out: Antimicrobial activity (IC50, μM) Ec
[18] = Aspergillus fumigatus Af293, read-out: Antimicrobial activity (IC50, μM) Af
[19] = Candida albicans JCM1542, read-out: Antimicrobial activity (IC50, μM) Ca
[20] = Plasmodium falciparum 3D7, read-out: Antimicrobial activity (IC50, μM) Pf

Compound	IC50 [1] [µM]	IC50 [2] [µM]	IC50 [3, 11] [µM]	IC50 (Escherichia coli HO141; [12]) [µM]	IC50 [4, 13] [µM]	IC50 [5] [µM]	IC50 (Candida albicans JCM1542; [14]) [µM]	IC50 [6, 15] [µM]	IC50 [7] [µM]	also measured
CC1=C[C@H]2C[C@@H](C)CC[C@@H]2[C@@](C)(C(=O)C2=C(O)[C@@H](CO)N(C)C2=O)[C@H]1/C=C/C=C/CO [Compound 7]	28	22	1.4	21	> 70	12	> 70	4.7	–	–
C/C=C/C=C/[C@@H]1C(C)=C[C@@H]2C[C@@H](C)CC[C@H]2[C@]1(C)C(=O)C1=C(O)C(CO)NC1=O (some centres unmarked) [Compound 6]	> 70	12	3.8	> 70	> 70	5.5	65	23	> 70	–
CC1=C[C@@H]2C[C@@H](C)CC[C@@H]2[C@@](C)(C(=O)C2=C(O)[C@@H](CO)NC2=O)[C@@H]1/C=C/C=C/C(=O)O [Compound 8]	> 70	> 70	63	28	> 70	> 70	> 70	26	> 70	solubility (in words) (Solubility in solvents): not soluble in any solvent; also recorded: too low
C/C=C/[C@@H]1C=C[C@@H]2C[C@H](C)CC[C@H]2[C@]1(C)C(=O)C1=C(O)[C@H](CO)N(C)C1=O [Compound 1, equisetin]	35	12	–	–	–	0.15	–	–	20	IC50 [3, 16]: 1.4 µM; IC50 (Escherichia coli HO141; [17]): 13 µM; IC50 [4, 18]: 29 µM; IC50 (Candida albicans JCM1542; [19]): 29 µM; IC50 [6, 20]: 12 µM; HIV-1 integrase inhibitory activity (in words) (HIV-1 integrase): inhibit HIV-1 integrase activity approximately equally; change in extracellular acidification rate (ECAR) [8]: increase in ECAR; change in oxygen consumption rate (OCR) [8]: decrease in OCR
C/C=C/C=C/[C@H]1C(C)=C[C@H]2C[C@@H](C)CC[C@@H]2[C@@]1(C)C(=O)C1=C(O)[C@@H](CO)N(C)C1=O [Compound 2, phomasetin]	6.1	3.4	0.14	1.3	21	0.044	21	1.8	11	HIV-1 integrase inhibitory activity (in words) (HIV-1 integrase): inhibit HIV-1 integrase activity approximately equally
C/C=C/C=C/[C@@H]1C(C)=C[C@@H]2C[C@@H](C)CC[C@@H]2[C@@]1(C)C(=O)C1=C(O)[C@@H](CO)NC1=O [Compound 4, N-demethyl-cis-phomasetin]	> 75	22	6	1.5	58	2	9	13	> 75	cytotoxicity against HeLa (in words) [9]: no cytotoxicity; cytotoxicity against src^ts-NRK (in words) [10]: no cytotoxicity
C/C=C/[C@H]1C=C[C@H]2C[C@H](C)CC[C@H]2[C@]1(C)C(=O)C1=C(O)[C@H](CO)N(C)C1=O [Compound 3, cis-equisetin]	46	14	–	–	–	0.46	–	–	35	IC50 [3, 16]: 5.6 µM; fold lower activity compared with that of 1, S. aureus ([3]; growth inhibitory activity against S. aureus, relative to 1): 4 fold; IC50 (Escherichia coli HO141; [17]): 20 µM; IC50 [4, 18]: 40 µM; fold lower activity compared with that of 1, P. oryzae ([5]; growth inhibitory activity against P. oryzae, relative to 1): 3 fold; IC50 (Candida albicans JCM1542; [19]): 40 µM; IC50 [6, 20]: 13 µM
C/C=C/C=C/[C@H]1C(C)=C[C@H]2C[C@@H](C)CC[C@@H]2[C@@]1(C)C(=O)C1=C(O)[C@@H](CO)NC1=O [Compound 5, N-demethylphomasetin]	40	11	0.2	2.5	9.8	1.3	3.8	4.8	63	–
